System: HCV 1b-377-neo replicon cells
Assay: HCV replicon assay (HCV 1b-377-neo replicon cells)
Format: cell-based, Hepatitis C virus genotype 1b
Conditions: Hepatitis C virus, read-out: EC50 range against HCV 1b (Range)
Outline: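 HCV genotype 1b (1b-377-neo) replicon cells, run as a validated replicon assay; parallel testing in replicon cells carrying the NS5A Y2065H resistance mutation.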

| SMILES | EC50 |
| --- | --- |
| COC(=O)N[C@@H](C)C(=O)N1CCC[C@H]1c1nc(-c2cnc(-c3ccc(-c4cnc([C@@H]5CCCN5C(=O)[C@H](C)NC(=O)OC)[nH]4)cc3)nc2)c[nH]1 [Example D73, methyl ((1S)-2-((2S)-2-(5-(4-(5-(2-((2S)-1-(N-(methoxy-carbonyl)-L-alanyl)-2-pyrroli-dinyl)-1H-imida-zol-5-yl)-2-pyrimi-dinyl)phenyl)-1H-imidazol-2-yl)-1-pyrroli-dinyl)-1-methyl-2-oxoeth-yl)carbamate] | 0.01 to 0.999 nM |
| COC(=O)N[C@H](C(=O)N1CCC[C@H]1c1nc(-c2cnc(-c3ccc(-c4cnc([C@@H]5CCCN5C(=O)[C@@H](NC(=O)OC)C(C)C)[nH]4)cc3)nc2)c[nH]1)C(C)C [Example D74, methyl ((1S)-1-(((2S)-2-(5-(2-(4-(2-((2S)-1-((2S)-2-((methoxy-carbonyl)amino)-3-methyl-butanoyl)-2-pyrroli-dinyl)-1H-imidazol-5-yl)phenyl)-5-pyrimi-dinyl)-1H-imida-zol-2-yl)-1-pyrroli-dinyl)carbon-yl)-2-methylpro-pyl)carba-mate] | 0.01 to 0.999 nM |
| COC(=O)N[C@H](C(=O)N1CCC[C@H]1c1nc(-c2cnc(-c3ccc(-c4cnc([C@@H]5CCCN5C(=O)[C@@H](NC(=O)OC)C5CC5)[nH]4)cc3)nc2)c[nH]1)C1CC1 [Example D75, methyl ((1S)-1-cyclopropyl-2-((2S)-2-(5-(2-(4-(2-((2S)-1-((2S)-2-cyclopropyl-2-((methoxy-carbonyl)amino)ace-tyl)-2-pyrroli-dinyl)-1H-imidazol-5-yl)phenyl)-5-pyrimi-dinyl)-1H-imida-zol-2-yl)-1-pyrroli-dinyl)-2-oxoeth-yl)carbamate] | 0.01 to 0.999 nM |
| CCN(CC)[C@@H](C(=O)N1CCC[C@H]1c1ncc(-c2ccc(-c3ncc(-c4c[nH]c([C@@H]5CCCN5C(=O)[C@@H](NC(=O)OC)C(C)C)n4)cn3)cc2)[nH]1)c1ccccc1 [Example D76, methyl ((1S)-1-(((2S)-2-(5-(2-(4-(2-((2S)-1-((2R)-2-(diethyl-amino)-2-phenyl-acetyl)-2-pyrroli-dinyl)-1H-imidazol-5-yl)phenyl)-5-pyrimi-dinyl)-1H-imida-zol-2-yl)-1-pyrroli-dinyl)carbon-yl)-2-methylpro-pyl)carba-mate] | 0.01 to 0.999 nM |
| CCN(CC)[C@@H](C(=O)N1CCC[C@H]1c1ncc(-c2ccc(-c3ncc(-c4c[nH]c([C@@H]5CCCN5C(=O)[C@H](C)NC(=O)OC)n4)cn3)cc2)[nH]1)c1ccccc1 [Example D77, methyl ((1S)-2-((2S)-2-(5-(2-(4-(2-((2S)-1-((2R)-2-(diethyl-amino)-2-phenyl-acetyl)-2-pyrroli-dinyl)-1H-imidazol-5-yl)phenyl)-5-pyrimi-dinyl)-1H-imida-zol-2-yl)-1-pyrrolidinyl)-1-methyl-2-oxoeth-yl)carbamate] | 0.01 to 0.999 nM |
| COC(=O)N[C@H](C(=O)N1CCCC1c1ncc(-c2cc(C)c(-c3c(C)cc(-c4cnc([C@@H]5CCCN5C(=O)[C@@H](NC(=O)OC)C(C)C)[nH]4)cc3C)c(C)c2)[nH]1)C(C)C (stereo partly shown) [Example F71] | 0.01 to 0.999 nM |
| COC(=O)N[C@@H](C)C(=O)N(C)[C@@H](C)c1ncc(-c2ccc(-c3ccc(-c4[nH]c([C@@H]5CCCN5C(=O)[C@H](C)NC(=O)OC)nc4C(F)(F)F)cc3)cc2)[nH]1 [Example J42.a, methyl ((1S)-2-((2S)-2-(5-(4′-(2-((1S)-1-((N-(methoxy-carbonyl)-L-alanyl)(meth-yl)ami-no)ethyl)-1H-imidazol-5-yl)-4-biphenylyl)-4-(trifluoromethyl)-1H-imida-zol-2-yl)-1-pyrrolidinyl)-1-methyl-2-oxoeth-yl)carbamate] | 0.01 to 0.999 nM |
| COC(=O)NC(C(=O)N1CCC[C@H]1c1ncc(-c2cnc(-c3ccc(-c4[nH]c([C@@H]5CCCN5C(=O)C(NC(=O)OC)c5ccccc5)nc4C(F)(F)F)cc3)nc2)[nH]1)c1ccccc1 (stereo partly drawn) [Example J46, methyl ((1R)-2-((2S)-2-(5-(4-(5-(2-((2S)-1-((2R)-2-((methoxy-carbonyl)amino)-2-phenylacetyl)-2-pyrrolidinyl)-1H-imidazol-5-yl)-2-pyrimi-dinyl)phenyl)-4-(trifluoromethyl)-1H-imida-zol-2-yl)-1-pyrrolidinyl)-2-oxo-1-phenyleth-yl)carbamate] | 0.01 to 0.999 nM |
| CCN(CC)[C@@H](C(=O)N1CCC[C@H]1c1ncc(-c2cnc(-c3ccc(-c4[nH]c([C@@H]5CCCN5C(=O)[C@@H](c5ccccc5)N(CC)CC)nc4C(F)(F)F)cc3)nc2)[nH]1)c1ccccc1 [Example J47, (1R)-2-((2S)-2-(5-(4-(5-(2-((2S)-1-((2R)-2-(diethylamino)-2-phenylacetyl)-2-pyrrolidinyl)-1H-imidazol-5-yl)-2-pyrimi-dinyl)phenyl)-4-(trifluoromethyl)-1H-imida-zol-2-yl)-1-pyrrolidinyl)-N,N-dieth-yl-2-oxo-1-phenylethanamine] | 0.01 to 0.999 nM |
| COC(=O)N[C@H](C(=O)N1CCC[C@H]1c1ncc(-c2cnc(-c3ccc(-c4[nH]c([C@@H]5CCCN5C(=O)[C@@H](NC(=O)OC)C(C)C)nc4C(F)(F)F)cc3)nc2)[nH]1)C(C)C [Example J48, methyl ((1S)-1-(((2S)-2-(5-(2-(4-(2-((2S)-1-((2S)-2-((methoxy-carbonyl)amino)-3-methyl-butanoyl)-2-pyrrolidinyl)-4-(trifluoromethyl)-1H-imidazol-5-yl)phenyl)-5-pyrimidinyl)-1H-imidazol-2-yl)-1-pyrroli-dinyl)carbon-yl)-2-methylpro-pyl)carba-mate] | 0.01 to 0.999 nM |
| COC(=O)N[C@H](C(=O)N1CCC[C@H]1c1ncc(-c2cnc(-c3ccc(-c4[nH]c([C@@H]5CCCN5C(=O)[C@@H](NC(=O)OC)C5CC5)nc4C(F)(F)F)cc3)nc2)[nH]1)C1CC1 [Example J49, methyl ((1S)-1-cyclopropyl-2-((2S)-2-(5-(4-(5-(2-((2S)-1-((2S)-2-cyclopropyl-2-((methoxy-carbonyl)amino)acetyl)-2-pyrrolidinyl)-1H-imidazol-5-yl)-2-pyrimi-dinyl)phenyl)-4-(trifluoromethyl)-1H-imida-zol-2-yl)-1-pyrrolidinyl)-2-oxoeth-yl)carbamate] | 0.01 to 0.999 nM |
| COC(=O)N[C@@H](C)C(=O)N1CCC[C@H]1c1ncc(-c2cnc(-c3ccc(-c4[nH]c([C@@H]5CCCN5C(=O)[C@H](C)NC(=O)OC)nc4C(F)(F)F)cc3)nc2)[nH]1 [Example J50, methyl ((1S)-2-((2S)-2-(5-(4-(5-(2-((2S)-1-(N-(methoxy-carbonyl)-L-alanyl)-2-pyrrolidinyl)-1H-imidazol-5-yl)-2-pyrimi-dinyl)phenyl)-4-(trifluoromethyl)-1H-imida-zol-2-yl)-1-pyrrolidinyl)-1-methyl-2-oxoeth-yl)carbamate] | 0.01 to 0.999 nM |
| CCN(CC)[C@H](C)C(=O)N1CCC[C@H]1c1ncc(-c2cnc(-c3ccc(-c4[nH]c([C@@H]5CCCN5C(=O)[C@H](C)N(CC)CC)nc4C(F)(F)F)cc3)nc2)[nH]1 [Example J51, (2R)-1-((2S)-2-(5-(4-(5-(2-((2S)-1-((2R)-2-(diethyl-amino)prop-anoyl)-2-pyrrolidinyl)-1H-imidazol-5-yl)-2-pyrimi-dinyl)phenyl)-4-(trifluoromethyl)-1H-imida-zol-2-yl)-1-pyrrolidinyl)-N,N-dieth-yl-1-oxo-2-propanamine] | 1 to 99 nM |
